Assay: Spectral absorption of light of sensitizer solutions (FIG. 2A, 2B)
Assay type: physicochemical
Excerpt: FIG. 2A is a graphic representation of spectral absorption of light for two embodiments of the sensitizer solution plotting absorbance versus wavelength in nm.
FIG. 2B is a graphic representation of the spectral absorption of light for four embodiments of the sensitizer solution plotting absorbance versus wavelength in nm.
FIGS. 2A and 2B illustrate that the sensitizer solution 12 has an electromagnetic energy absorption level dependent on the frequency (i.e., wavelength) of the electromagnetic energy. […] See U.S. Pat. No. 6,561,808 by Neuberger.

Compound	absorption spectrum primary peak	absorption spectrum secondary peak	absorption spectrum tertiary peak
C=Cc1c(C)c2cc3nc(c(CC(=O)O)c4[nH]c(cc5nc(cc1[nH]2)C(C)=C5CC)c(C)c4C(=O)O)[C@@H](CCC(=O)O)[C@@H]3C [chlorin e6]	about 665 nm	about 575 nm	about 515 nm
bacteriochlorin a	about 765 nm	about 605 nm	
silicon naphthalocyanine	about 773 nm	about 690 nm	about 735 nm

Reference: patent US20080255498A1, “Sensitizer Solutions, Systems, and Methods of Use” (priority 2005, published 2008)
